# Where two headings read alike, the source gives them in different places.
# Key:
# IKr channel [1] = target: T1, IKr channel (Homo sapiens, UniProt Q12809); details: for double peaks (notches) three hours after taking sotalol: 80 mg sotalol
# Description: The QTcF, TAmp and TpTe were measured according to the same protocol as for example 1, before and three hours after administration of a single oral dose of sotalol at 80 mg.
# The ΔQTcF, ΔTpTe and ΔTAmp were also calculated.
# IKr potassium channel = IKr potassium channel (Homo sapiens, UniProt Q12809); details: cited from earlier work
# IKr channel [2] = target: T1, IKr channel; assay: ECG changes three hours after a single oral dose of 80 mg sotalol (GENEREPOL cohort, Example 1); format: in vivo; design: from tissue; host or cells: heart (ventricular myocardium) of living human volunteers; surface ECG read-out; details: H3
# Description: The cohort of patients was that of the GENEREPOL study, and consisted of 995 volunteers in good health, from 18 to 60 years old, of European or North African origin. The objective of this study was to identify genetic predispositions linked to the inhibition of the IKr channel after administration of 80 mg sotalol, with a body mass index between 19 and 29 kg/m^2, informed consent having been received. […]
# An intravenous catheter was inserted for taking blood samples. The ECG of the patients was then recorded using the Cardioplug device (Cardionics Inc®, Brussels, Belgium) connected to a laptop computer. […] Three hours after sotalol had been taken ([…]), the ECG was again recorded (in triplicate) after the subjects had remained lying on their back for 10 minutes and before lunch. […]
# The QTcF, TpTe and TAmp and the presence of notches (double peak) in the T wave were quantified. […]
# The quantitative analysis of the QTcF, TpTe and TAmp was carried out by two trained investigators, in order to limit the inter-evaluator variability.
# TpTe was measured by the tangent method, in triplicate, on a representative beat (average representation of an ECG of 10 seconds) on the V3, V4 and V5 leads. […]
# QTcF was measured by the tangent method on the DII lead for three consecutive beats and the average value of an evaluation in triplicate was retained. […]
# Sequence of IKr potassium channel (Q12809 whole entry): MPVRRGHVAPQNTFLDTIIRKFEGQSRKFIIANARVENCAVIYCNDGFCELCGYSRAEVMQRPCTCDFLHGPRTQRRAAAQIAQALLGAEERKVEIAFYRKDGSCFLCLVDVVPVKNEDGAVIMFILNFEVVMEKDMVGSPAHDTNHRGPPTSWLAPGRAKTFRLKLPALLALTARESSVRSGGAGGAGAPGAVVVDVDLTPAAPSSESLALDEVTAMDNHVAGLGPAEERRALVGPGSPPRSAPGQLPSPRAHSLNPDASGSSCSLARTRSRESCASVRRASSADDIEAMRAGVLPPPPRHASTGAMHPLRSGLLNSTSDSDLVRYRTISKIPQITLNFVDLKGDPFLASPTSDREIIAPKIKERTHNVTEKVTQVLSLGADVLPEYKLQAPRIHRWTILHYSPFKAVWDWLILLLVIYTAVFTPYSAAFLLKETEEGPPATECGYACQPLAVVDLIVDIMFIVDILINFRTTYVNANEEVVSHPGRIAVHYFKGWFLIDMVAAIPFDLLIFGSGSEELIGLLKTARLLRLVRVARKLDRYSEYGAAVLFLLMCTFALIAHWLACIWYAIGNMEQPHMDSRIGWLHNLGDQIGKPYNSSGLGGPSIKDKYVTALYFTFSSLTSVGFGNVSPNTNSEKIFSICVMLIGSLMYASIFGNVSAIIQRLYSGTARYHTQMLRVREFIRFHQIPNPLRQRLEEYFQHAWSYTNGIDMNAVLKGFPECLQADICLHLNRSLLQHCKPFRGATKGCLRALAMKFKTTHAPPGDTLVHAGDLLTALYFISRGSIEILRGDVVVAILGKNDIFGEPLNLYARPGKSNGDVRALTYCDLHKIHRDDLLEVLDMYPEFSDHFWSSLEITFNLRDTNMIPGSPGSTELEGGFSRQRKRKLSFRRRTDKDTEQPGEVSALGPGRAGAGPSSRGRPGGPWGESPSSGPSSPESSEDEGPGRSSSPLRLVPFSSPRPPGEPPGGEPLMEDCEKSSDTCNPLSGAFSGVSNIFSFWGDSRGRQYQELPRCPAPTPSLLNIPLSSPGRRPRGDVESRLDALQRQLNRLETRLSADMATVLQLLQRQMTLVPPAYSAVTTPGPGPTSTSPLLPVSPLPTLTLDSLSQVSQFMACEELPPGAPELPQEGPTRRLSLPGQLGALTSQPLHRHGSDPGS
# T1 sequence (Q12809 whole entry): as above
Compound,double peaks (notches) three hours after taking sotalol (IKr channel [1]; women not taking an oral contraceptive) [%],plasma sotalol concentration (IKr channel [1]; women taking drospirenone vs women with no contraception),risk of induction of torsades de pointes (IKr potassium channel; dose-dependent),increase in QT/QTc (IKr potassium channel; sotalol at 80 mg),induction of an episode of torsade de pointes (IKr potassium channel; sotalol at 80 mg),time of maximum concentration after oral intake (IKr potassium channel; taken orally),"subjects exhibiting a double peak (notch) (IKr channel [2]; first (exploration) cohort, 40 subjects) [%]","subjects exhibiting a double peak (notch) (IKr channel [2]; second (replication) cohort, 51 subjects) [%]",double peaks (notches) three hours after taking sotalol (IKr channel [1]; women taking drospirenone) [%]
CC(C)NCC(O)c1ccc(NS(C)(=O)=O)cc1 (stereo not drawn) [sotalol],13.4,No difference,up to 7 % of patients treated,approximately 20 ms,does not induce an episode of torsade de pointes,approximately 3 hours,8,10,
C[C@]12CCC(=O)C=C1[C@@H]1C[C@@H]1[C@H]1[C@@H]3[C@@H]4C[C@@H]4[C@@]4(CCC(=O)O4)[C@@]3(C)CC[C@@H]12 [drospirenone],,,,,,,,,25.8
